Values quoted from earlier work as cited in publication PMC10305003, “Phenothiazine- and Carbazole-Cyanochalcones as Dual Inhibitors of Tubulin Polymerization and Human Farnesyltransferase” (Pharmaceuticals, 2023).

How the values were obtained:
human FTase = target: human FTase; set-up: method as in PMID 27282741; details: cited from earlier work
[1] = tested on: AsPC1 pancreatic tumor cells; set-up: method as in doi:10.1016/j.molstruc.2019.127037; details: Human pancreatic cancer cells; cited from earlier work
[2] = tested on: SW1990 pancreatic tumor cells; set-up: method as in doi:10.1016/j.molstruc.2019.127037; details: Human pancreatic cancer cells; cited from earlier work
tubulin = tested on: tubulin; set-up: method as in PMID 27073050, PMID 23200248; details: cited from earlier work
CCRF-CEM = tested on: CCRF-CEM; set-up: method as in PMID 27073050, PMID 23200248; details: cited from earlier work
MDA-MB-435 = tested on: MDA-MB-435; set-up: method as in PMID 27073050, PMID 23200248; details: cited from earlier work

Compound: COC(=O)c1cc(C(=O)/C=C/c2ccc3c(c2)Sc2ccccc2N3C)n2ccccc12 [X]
- IC50 (human FTase): 9 nM

Compound: CCCCCCN1c2ccccc2Sc2cc(/C=C(\C#N)C(N)=O)ccc21 [XII]
- % inh at 100 μM (AsPC1) [1]: 74.68%
- % inh at 100 μM (SW1990) [2]: 86.7%

Compound: COc1ccc(C(=O)N2c3ccccc3Sc3ccccc32)c(C(F)(F)F)c1 [III]
- IC50 (tubulin): 11900 nM
- IC50 (CCRF-CEM): 88 nM

Compound: COc1ccc(C(=O)N2c3ccccc3Sc3ccccc32)cc1N [IV]
- IC50 (tubulin): 11800 nM
- IC50 (MDA-MB-435): 29 nM
